Measurements published in ChEMBL document CHEMBL5113460, “Discovery of dual inhibitors of topoisomerase I and Cyclooxygenase-2 for colon cancer therapy” (Eur J Med Chem, 2022).
The source made the active and inactive calls. The rule behind the calls is not given here.

How the values were obtained:
[1] = target: Prostaglandin G/H synthase 2 (Homo sapiens) (UniProt P35354); experiment: Inhibition of COX-2 (unknown origin) at 3 uM
RKO = experiment: Antitumor activity against human RKO cells assessed as inhibition of cell proliferation incubated for 72 hrs by MTT assay; format: functional, cell-based
SW480 = experiment: Antitumor activity against human SW480 cells assessed as inhibition of cell proliferation incubated for 72 hrs by MTT assay; format: functional, cell-based; settings: SW480, 72 h
LoVo = experiment: Antitumor activity against human LoVo cells assessed as inhibition of cell proliferation incubated for 72 hrs by MTT assay; format: functional, cell-based
[2] = target: T1, DNA topoisomerase 1 (Homo sapiens) (UniProt P11387); experiment: Inhibition of topoisomerase 1 (unknown origin) assessed as relaxation of supercoiled plasmid pBR322 DNA at 10 uM incubated for 45 mins by ethidium bromide staining based agarose gel electrophoresis
T1 sequence (whole entry): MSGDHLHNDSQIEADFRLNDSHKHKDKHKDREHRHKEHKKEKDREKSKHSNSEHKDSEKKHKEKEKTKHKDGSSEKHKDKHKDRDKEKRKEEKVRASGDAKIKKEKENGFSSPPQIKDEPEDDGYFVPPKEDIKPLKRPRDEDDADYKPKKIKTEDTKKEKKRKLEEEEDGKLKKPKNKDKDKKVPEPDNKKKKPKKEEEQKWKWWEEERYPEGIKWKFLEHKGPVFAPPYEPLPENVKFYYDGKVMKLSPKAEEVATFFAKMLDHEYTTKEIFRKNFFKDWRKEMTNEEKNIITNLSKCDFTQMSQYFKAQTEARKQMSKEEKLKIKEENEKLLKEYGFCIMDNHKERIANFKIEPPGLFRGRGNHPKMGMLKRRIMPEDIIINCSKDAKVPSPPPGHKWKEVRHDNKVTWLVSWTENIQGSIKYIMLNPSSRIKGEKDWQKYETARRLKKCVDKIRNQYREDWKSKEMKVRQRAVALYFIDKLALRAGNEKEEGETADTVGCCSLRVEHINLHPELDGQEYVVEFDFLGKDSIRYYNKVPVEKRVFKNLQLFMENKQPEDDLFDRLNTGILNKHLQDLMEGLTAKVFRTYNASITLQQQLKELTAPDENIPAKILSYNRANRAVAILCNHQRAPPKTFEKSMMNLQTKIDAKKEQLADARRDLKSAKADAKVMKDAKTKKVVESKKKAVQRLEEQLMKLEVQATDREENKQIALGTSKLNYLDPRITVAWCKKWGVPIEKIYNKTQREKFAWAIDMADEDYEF

[3] = target: Prostaglandin G/H synthase 2 (Homo sapiens) (UniProt P35354); experiment: Inhibition of COX-2 (unknown origin) at 30 uM
HCT-116 = experiment: Antitumor activity against human HCT-116 cells assessed as inhibition of cell proliferation incubated for 72 hrs by MTT assay; format: functional, cell-based; settings: HCT-116, 72 h
HT-29 [4] = experiment: Antitumor activity against human HT-29 cells assessed as inhibition of cell proliferation incubated for 72 hrs by MTT assay; format: functional, cell-based; settings: HT-29, 72 h
[5] = target: T1, DNA topoisomerase 1 (Homo sapiens); experiment: Inhibition of topoisomerase 1 (unknown origin) assessed as relaxation of supercoiled plasmid pBR322 DNA at 1 uM incubated for 45 mins by ethidium bromide staining based agarose gel electrophoresis
HT-29 [6] = experiment: Antitumor activity against human HT-29 cells xenografted in BALB/c mouse assessed as reduction of tumor weight at 30 mg/kg, ip bid and measured after 14 days; format: functional, organism-based; settings: time 14.0 day
[7] = Water solubility of compound by HPLC analysis; format: physicochemical
HT-29 [8] = experiment: Antitumor activity against human HT-29 cells xenografted in BALB/c mouse assessed as inhibition of tumor growth at 30 mg/kg, ip bid and measured after 14 days by vernier caliper method; format: functional; settings: HT-29, 336 h, time 14 day, read-out: TGI
HT-29 [9] = experiment: Antitumor activity against human HT-29 cells xenografted in BALB/c mouse assessed as inhibition of tumor microvessel density by measuring CD31-index at 30 mg/kg, ip bid for 14 days by immunohistochemical analysis; format: functional; settings: time 14 day

Sequence of Prostaglandin G/H synthase 2 (Homo sapiens) (P35354 whole entry, looked up): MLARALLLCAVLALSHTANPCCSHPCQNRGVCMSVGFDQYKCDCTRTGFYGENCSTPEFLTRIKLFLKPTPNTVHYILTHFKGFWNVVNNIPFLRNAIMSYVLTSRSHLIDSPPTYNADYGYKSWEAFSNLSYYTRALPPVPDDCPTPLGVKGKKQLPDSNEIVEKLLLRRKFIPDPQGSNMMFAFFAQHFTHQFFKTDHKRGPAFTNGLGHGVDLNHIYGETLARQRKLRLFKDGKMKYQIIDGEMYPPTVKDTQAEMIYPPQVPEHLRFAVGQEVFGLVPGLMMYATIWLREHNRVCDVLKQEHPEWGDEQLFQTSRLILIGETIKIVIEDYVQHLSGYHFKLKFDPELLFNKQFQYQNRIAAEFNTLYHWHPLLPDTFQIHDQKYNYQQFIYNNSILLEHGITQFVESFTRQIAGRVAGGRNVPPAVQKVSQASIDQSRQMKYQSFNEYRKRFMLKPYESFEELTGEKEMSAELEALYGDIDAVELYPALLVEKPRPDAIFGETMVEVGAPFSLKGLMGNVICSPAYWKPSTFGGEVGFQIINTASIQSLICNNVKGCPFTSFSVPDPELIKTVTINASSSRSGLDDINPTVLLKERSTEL

| SMILES | inhibition [1] | IC50 (RKO) | IC50 (SW480) | IC50 (LoVo) | inhibition [2] | inhibition [3] | IC50 (HCT-116) | IC50 (HT-29 [4]) | inhibition [5] | Activity (HT-29 [6]) | solubility [7] | inhibition in vivo at 30 mg/kg (HT-29 [8]) | Inhibition_index (HT-29 [9]) |
| --- | --- | --- | --- | --- | --- | --- | --- | --- | --- | --- | --- | --- | --- |
| Cc1c(Cl)cccc1Nc1ccccc1C(=O)Nc1ccc(N2CCOCC2)cc1 | 41.6% | > 30 µM | > 30 µM | > 30 µM | 14.5% | 42.9% | > 30 µM | 6.4 µM | – | – | – | – | – |
| CCCN1CCN(c2ccc(NC(=O)c3ccccc3Nc3cccc(Cl)c3C)cc2)CC1 | 36.5% | 10.1 µM | 16.9 µM | 13.5 µM | 63.1% | 81% | 13.4 µM | 6.35 µM | – | – | – | – | – |
| Cc1c(Cl)cccc1Nc1ccccc1C(=O)Nc1ccc(OC(=O)CO)cc1 | 24.9% | 14.1 µM | > 30 µM | > 30 µM | 45.1% | 97.9% | 13.5 µM | 13.6 µM | – | – | – | – | – |
| Cc1c(Cl)cccc1Nc1ccccc1C(=O)Nc1ccc(NCCO)cc1 | 69% | 29 µM | > 30 µM | > 30 µM | 40.9% | 100% | 13.9 µM | 12.9 µM | – | – | – | – | – |
| Cc1c(Cl)cccc1Nc1ccccc1C(=O)Nc1ccc(N2CCN(S(C)(=O)=O)CC2)cc1 | 24.5% | > 30 µM | > 30 µM | > 30 µM | 19.7% | 34.2% | > 30 µM | > 30 µM | 19.5% | – | – | – | – |
| CCCCN1CCN(c2ccc(NC(=O)c3ccccc3Nc3cccc(Cl)c3C)cc2)CC1 | 42.2% | 15.2 µM | 18.3 µM | > 30 µM | 53.2% | 58.3% | 13.2 µM | 9.83 µM | 27.6% | – | – | – | – |
| O=c1[nH]cc(F)c(=O)[nH]1 [FLUOROURACIL] | – | – | > 30 µM | 8.35 µM | – | – | 7.77 µM | 12.2 µM | – | – | – | – | – |
| Cc1c(Cl)cccc1Nc1ccccc1C(=O)Nc1ccc(OCCNC(=O)OC(C)(C)C)cc1 | – | 0.75 µM | > 30 µM | 28.9 µM | 18.2% | 28% | > 30 µM | 1.88 µM | – | Active | < 1 µg/mL | 37.9% | 11.67 |
| Cc1c(Cl)cccc1Nc1ccccc1C(=O)Nc1ccc(N2CCN(C(C)C)CC2)cc1 | 30.1% | 10.8 µM | 10.3 µM | 8.29 µM | 54.6% | 83.7% | 12 µM | 2.97 µM | 37.5% | – | – | – | – |
| Cc1c(Cl)cccc1Nc1ccccc1C(=O)Nc1ccc(N2CCN(C(=O)OC(C)(C)C)CC2)cc1 | 18.9% | > 30 µM | > 30 µM | > 30 µM | 20.4% | 41.9% | > 30 µM | 11.9 µM | – | – | – | – | – |
| Cc1c(Cl)cccc1Nc1ccccc1C(=O)Nc1ccc(OCCO)cc1 | 22.6% | 16.7 µM | > 30 µM | 24.7 µM | 46.2% | 47.9% | 9.65 µM | 6.83 µM | – | – | – | – | – |
| Cc1c(Cl)cccc1Nc1ccccc1C(=O)Nc1ccc(N2CCN(c3ccccc3)CC2)cc1 | 27.6% | > 30 µM | > 30 µM | > 30 µM | 13.9% | 37.8% | > 30 µM | > 30 µM | 12.6% | – | – | – | – |
| Cc1c(Cl)cccc1Nc1ccccc1C(=O)Nc1ccc(S(N)(=O)=O)cc1 | 42% | 13.7 µM | 14.7 µM | 13.3 µM | 24.4% | 71.3% | 7.7 µM | 28.8 µM | 19.8% | – | – | – | – |
| COCC(=O)Oc1ccc(NC(=O)c2ccccc2Nc2cccc(Cl)c2C)cc1 | 25.2% | 14 µM | > 30 µM | > 30 µM | 16.6% | 47.7% | 12.6 µM | 18.7 µM | – | – | – | – | – |
| Cc1c(Cl)cccc1Nc1ccccc1C(=O)Nc1ccc(N2CCN(C)CC2)cc1 | 54.4% | 6.61 µM | 11.3 µM | 5 µM | 67.8% | 100% | 7.58 µM | 2.09 µM | 25.4% | – | – | – | – |
| CC(=O)N1CCN(c2ccc(NC(=O)c3ccccc3Nc3cccc(Cl)c3C)cc2)CC1 | 37.6% | > 30 µM | > 30 µM | > 30 µM | 29% | 60.3% | > 30 µM | > 30 µM | – | – | – | – | – |
| Cc1c(Cl)cccc1Nc1ccccc1C(=O)Nc1ccc(OCCN)cc1 | 28.7% | 9.22 µM | 25.3 µM | 12.9 µM | 63.8% | 43.2% | 6.41 µM | 12 µM | 41.3% | – | – | – | – |
| COCCOc1ccc(NC(=O)c2ccccc2Nc2cccc(Cl)c2C)cc1 | 31.7% | 15.4 µM | > 30 µM | 14.7 µM | 29.3% | 36.5% | > 30 µM | 7.48 µM | 25% | – | – | – | – |
| CCN1CCN(c2ccc(NC(=O)c3ccccc3Nc3cccc(Cl)c3C)cc2)CC1 | 37.1% | 10 µM | 15.8 µM | 9.51 µM | 71.9% | 100% | 11.5 µM | 2.99 µM | – | – | – | – | – |
| Cc1c(Cl)cccc1Nc1ccccc1C(=O)Nc1ccc(C(N)=O)cc1 | – | > 30 µM | > 30 µM | 22.8 µM | 19.6% | 3.53% | 17.5 µM | 26.1 µM | – | – | – | – | – |
